What all share (type): biochemical
In assay [1] the target is T1, recombinant CYP3A4+b5 enzyme (Supersomes®) (Homo sapiens, UniProt P08684).
T1 construct: purchased BD Biosciences (Woburn, Mass.)
Nature of the assay: Kiapp against recombinant CYP3A4 enzyme (Supersomes), BFC substrate. The following applies: recombinant CYP3A4+b5 (BD Biosciences), 5 uM BFC, 200 uM NADPH, pre-incubation at least 30 minutes, pH 7.0, room temperature. The procedure:
1. Determination of Compound Kiapp
A determination of the Kiapp of the compounds of the invention against recombinant CYP3A4 enzyme was performed as follows. The assay was performed in a 100 mM sodium phosphate buffer pH 7.0, 5 mM TCEP and containing 2% dimethylformamide (final concentration) upon addition of substrate and inhibitor. A typical reaction for the determination of Kiapp values was carried at room temperature in a solid black Costar u-bottom 96-well polypropylene plate. In each well, recombinant CYP3A4 enzyme (5.5 nM or 8 nM, final concentration depending on the commercial source of the enzyme) was pre-incubated in the presence of the inhibitor for at least 30 minutes in the assay buffer. When pre-incubation was completed (˜30 min), the reaction was initiated by adding NADPH (200 uM, final concentration), and 7-benzyloxy-4-(trifluoromethyl)-coumarin (BFC) (5 uM, final concentration). The oxidation of the coumarin substrate was recorded by a 96-well plate reader POLARstar (BMG LABTECH, Offenburg, Germany).
The initial reaction velocities were measured during the first 5 min of the reaction when the release of the fluorescent product is linear with time, in the absence and in the presence of various concentrations of inhibitors. For non-partial & partial inhibitors, the Kiapp values were determined by using the equation for tight-binding inhibitor developed by Morrison, J F (Morrison J F. Biochim Biophys Acta. 1969, 185: 269-86) and by Szedlaseck S E et al. (Szedlascek, S. E., Ostafe, V., Serban, M., and Vlad, M. O. Biochem. J. 1988, 254:311-312), respectively.
The fluorescent substrate BFC was purchased from Sigma (St Louis, Mo.). Two commercial sources of recombinant enzymes were used in this study: recombinant CYP3A4-b5 enzyme (Baculosomes®) was purchased from Invitrogen (Carlsbad, Calif.) and the recombinant CYP3A4+b5 enzyme (Supersomes®) was purchased from BD Biosciences (Woburn, Mass.).

Assay [2] addresses T2, recombinant CYP3A4-b5 enzyme (Baculosomes®) (Homo sapiens, UniProt P08684).
T2 construct: purchased Invitrogen (Carlsbad, Calif.)
Nature of the assay: Kiapp against recombinant CYP3A4 enzyme (Baculosomes), BFC substrate. The following applies: recombinant CYP3A4-b5 (Invitrogen), 5 uM BFC, 200 uM NADPH, pre-incubation at least 30 minutes, pH 7.0, room temperature. Put shortly:
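Recombinant CYP3A4-b5 Baculosomes were run in 100 mM sodium phosphate pH 7.0 with 5 mM TCEP and 2% DMF at room temperature, with ~30 min pre-incubation. The reaction was started with NADPH (200 uM) and BFC (5 uM), both final. Kiapp came from initial fluorescence velocities over the first 5 min across inhibitor concentrations.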

Assay [3] concerns the target T3, CYP3A4 (Homo sapiens, UniProt P08684).
T3 construct: 0.1 mg/mL human liver microsomes; from tissue; host or cells: human liver microsomes
The assay can be described thus: IC50 against CYP3A4 by inhibition of midazolam metabolism in human liver microsomes. As to conditions: 0.1 mg/mL human liver microsomes, 2 μM midazolam, 1 mM NADPH, 1-hydroxymidazolam production, eight minutes; read-out: IC50, μM (HLM, midazolam). Put shortly:
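Human liver microsomes (0.1 mg/mL) incubated 8 min with 2 μM midazolam and 1 mM NADPH in 100 mM potassium phosphate, pH 7.4. 1-Hydroxymidazolam quantified by LC-MS/MS (MRM) as peak area ratio to internal standard against a metabolite standard curve.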

Assay [4] concerns the target T3, CYP3A4. Nature of the assay: IC50 against CYP3A4 by inhibition of testosterone metabolism in human liver microsomes. The following applies: 0.1 mg/mL human liver microsomes, 25 μM testosterone, 1 mM NADPH, 6-β-OH-testosterone production, eight minutes; read-out: IC50, μM (HLM, testosterone). The method, boiled down:
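Testosterone used as substrate, incubated for eight minutes. 6-β-OH-testosterone formation quantified by LC-MS/MS (MRM) as peak area ratio to internal standard against a metabolite standard curve. IC50 derived from inhibition of this metabolism.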

Structures are written as SMILES. Counter-ions that a name gives are not always drawn.

T1 sequence (P08684 2-503 limits assumed): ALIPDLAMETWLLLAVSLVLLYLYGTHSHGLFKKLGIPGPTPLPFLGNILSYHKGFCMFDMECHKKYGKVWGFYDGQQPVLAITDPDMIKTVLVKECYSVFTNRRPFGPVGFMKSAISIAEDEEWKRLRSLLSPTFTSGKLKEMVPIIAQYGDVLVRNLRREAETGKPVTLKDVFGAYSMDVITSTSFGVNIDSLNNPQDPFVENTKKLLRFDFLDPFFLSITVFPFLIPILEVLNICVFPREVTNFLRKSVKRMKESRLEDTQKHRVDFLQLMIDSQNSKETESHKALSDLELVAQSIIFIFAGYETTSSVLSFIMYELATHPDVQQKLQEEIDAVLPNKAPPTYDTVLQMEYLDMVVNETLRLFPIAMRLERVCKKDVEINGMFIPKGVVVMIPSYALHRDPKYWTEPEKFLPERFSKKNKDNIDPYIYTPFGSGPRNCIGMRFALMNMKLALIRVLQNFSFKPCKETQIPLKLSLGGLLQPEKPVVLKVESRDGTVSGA
T2 sequence (P08684 whole entry): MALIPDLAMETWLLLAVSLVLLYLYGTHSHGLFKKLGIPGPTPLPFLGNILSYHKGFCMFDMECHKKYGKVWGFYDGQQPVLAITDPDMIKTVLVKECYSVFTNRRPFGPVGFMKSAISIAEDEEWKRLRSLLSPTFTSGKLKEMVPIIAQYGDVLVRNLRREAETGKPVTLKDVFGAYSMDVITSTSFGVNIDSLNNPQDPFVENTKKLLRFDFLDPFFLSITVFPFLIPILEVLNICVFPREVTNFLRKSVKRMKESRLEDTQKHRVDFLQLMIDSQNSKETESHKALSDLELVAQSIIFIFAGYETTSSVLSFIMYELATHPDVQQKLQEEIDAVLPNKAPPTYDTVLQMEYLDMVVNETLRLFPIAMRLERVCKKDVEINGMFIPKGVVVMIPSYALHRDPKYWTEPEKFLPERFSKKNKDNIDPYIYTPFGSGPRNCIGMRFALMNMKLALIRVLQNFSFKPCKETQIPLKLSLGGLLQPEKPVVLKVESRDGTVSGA
T3 sequence (P08684 whole entry): as above

Usually IC50 stands for the point on the concentration scale where inhibition reaches its midpoint. As to `Fc1ccc(Cc2cc(-c3ccncc3)n[nH]2)cc1` [Example 1, 4-[5-(4-fluorobenzyl)-1H-pyrazol-3-yl]pyridine], the Ki in assay [1] was 0.0064 µM; in assay [2], 0.0557 µM. In addition, the IC50 at CYP3A4 [3] was 0.077 µM; on CYP3A4 [4], below 0.022 µM.

For the molecule `O=C(Cn1nc(-c2ccncc2)cc1Cc1ccc(F)cc1)N1CCCC(N2CCOCC2)CC1` (stereo not shown) [Example 4, 1-{[5-(4-fluorobenzyl)-3-pyridin-4-yl-1H-pyrazol-1-yl]acetyl}-4-morpholin-4-ylazepane, maleic acid salt], the values for the Ki in assay [1] and in assay [2] were 0.0061 µM and 0.0211 µM, respectively. In addition, the IC50 on CYP3A4 [3] was found to be 0.023 µM; on CYP3A4 [4] it was 0.057 µM.

As to `CS(=O)(=O)C1CCN(C(=O)Cn2nc(-c3ccncc3)cc2Cc2ccc(F)cc2)CC1` [Example 6, 4-(5-(4-fluorobenzyl)-1-{2-[4-(methylsulfonyl)piperidin-1-yl]-2-oxoethyl}-1H-pyrazol-3-yl)pyridine], the Ki was 0.0118 µM in assay [1] and 0.0237 µM in assay [2]. Besides, the IC50 is 0.0218 µM at CYP3A4 [3] and 0.024 µM at CYP3A4 [4].

On to `CNC1CCN(C(=O)Cn2nc(-c3ccncc3)cc2Cc2ccc(F)cc2)CC1` [Example 7, 1-{[5-(4-fluorobenzyl)-3-pyridin-4-yl-1H-pyrazol-1-yl]acetyl}-N-methylpiperidin-4-amine], for which the Ki in assay [1] came to 0.033 µM; in assay [2], 0.196 µM. Further, the IC50 at CYP3A4 [3] turned out to be 0.073 µM; on CYP3A4 [4], 0.105 µM.

For `CC(C)NC(=O)N(C)C1CCN(C(=O)Cn2nc(-c3ccncc3)cc2Cc2ccc(F)cc2)CC1` [Example 16, N-(1-{[5-(4-fluorobenzyl)-3-pyridin-4-yl-1H-pyrazol-1-yl]acetyl}piperidin-4-yl)-N′-isopropyl-N-methylurea], the Ki in assay [1] turned out to be 0.0139 µM; in assay [2], 0.0369 µM. Moreover, the half-inhibitory concentration (IC50) stood at 0.00707 µM at CYP3A4 [3] and 0.016 µM on CYP3A4 [4].

For the molecule `CC(C)NC(=O)NC1CCN(C(=O)Cn2nc(-c3ccncc3)cc2Cc2ccc(F)cc2)CC1` [Example 17, N-(1-{[5-(4-fluorobenzyl)-3-pyridin-4-yl-1H-pyrazol-1-yl]acetyl}piperidin-4-yl)-N′-isopropylurea], the Ki in assay [1] is 0.0231 µM; in assay [2], 0.0667 µM. For the same molecule, the results for the IC50 at CYP3A4 [3] and at CYP3A4 [4] were 0.0115 µM and 0.035 µM, respectively.

Regarding `CS(=O)(=O)NC1CCN(C(=O)Cn2nc(-c3ccncc3)cc2Cc2ccc(F)cc2)CC1` [Example 19, N-(1-{2-[5-(4-fluorobenzyl)-3-pyridin-4-yl-1H-pyrazol-1-yl]acetyl}piperidin-4-yl)methanesulfonamide], the figures for the Ki in assay [1] and in assay [2] were 0.0057 µM and 0.128 µM, respectively. Also, the half-inhibitory concentration (IC50) was found to be 0.0138 µM at CYP3A4 [3] and 0.033 µM at CYP3A4 [4].

In the case of `CC(C)(CN1CCOCC1)NC(=O)Cn1nc(-c2c[nH]nn2)cc1Cc1ccc(F)cc1` [Example 50, N-(1,1-dimethyl-2-morpholin-4-ylethyl)-2-[5-(4-fluorobenzyl)-3-(1H-1,2,3-triazol-4-yl)-1H-pyrazol-1-yl]acetamide], the Ki in assay [1] came to 0.389 µM; in assay [2], 0.729 µM. For the same molecule, the values for the IC50 on CYP3A4 [3] and at CYP3A4 [4] were 0.132 µM and 0.168 µM, respectively.

Turning to `CC(=O)NC(C)(C)CNC(=O)Cn1nc(-c2ccncc2)cc1Cc1ccc(F)cc1` [Example 71, N-[2-(acetylamino)-2-methylpropyl]-2-[5-(4-fluorobenzyl)-3-pyridin-4-yl-1H-pyrazol-1-yl]acetamide], the Ki in assay [1] stood at 0.0237 µM; in assay [2] it was 0.0599 µM. The results for the IC50 on CYP3A4 [3] and at CYP3A4 [4] were 0.034 µM and 0.035 µM, respectively.

As to `CN(C)[C@H]1CCN(C(=O)Cn2nc(-c3ccncc3)cc2Cc2ccc(F)cc2)C1` [Example 73, (3S)-1-{[5-(4-fluorobenzyl)-3-pyridin-4-yl-1H-pyrazol-1-yl]acetyl}-N,N-dimethylpyrrolidin-3-amine], the Ki in assay [1] came out at 0.0339 µM; in assay [2], 0.211 µM. Besides, the IC50 on CYP3A4 [3] is 0.018 µM; on CYP3A4 [4], 0.0435 µM.
